From US7888342B2, “Methods of treating fibromyalgia syndrome, chronic fatigue syndrome and pain” (Cypress Bioscience, Inc., priority 2001, dated 2011)

Columns and labels:
[1] = tested on: patients with fibromyalgia syndrome (FMS); assay: Example 5: multicenter, double-blind, randomized, placebo-controlled monotherapy study of milnacipran for fibromyalgia; type: in vivo, human; conditions: 3-months
Protocol: This was a multicenter, randomized, double-blind, placebo-controlled three-arm study designed which enrolled 1196 patients who meet the 1990 ACR criteria for fibromyalgia syndrome (history of widespread pain and pain in 11 of 18 tender point sites on digital palpation), as well as the more detailed admission criteria outlined in the protocol. […] All randomized medications (placebo and milnacipran) were administered twice a day (BID). (i) Primary Efficacy Assessments: Patient Global Impression of Change (PGIC) administered to patients at visits […] Tx15/ET; Physical Component summary of SF-36 (SF-36 PCS) administered to patients at visits BL2/Tx0, […]) Secondary Efficacy Assessments: Time weighted average (AUC) of weekly average PED morning recall pain score; PGIC and SF-36 PCS administered to patients at visits Tx3 to Tx15. (iii) Additional Efficacy Measurements: The Fibromyalgia Impact Questionnaire (FIQ) total score and physical function, Beck Depression Inventory (BDI), the MOS-Sleep Index Scale, the Arizona Sexual Experiences Scale (ASEX), Patient pain 24 hour and 7 day recall VAS, the SF-36 individual domains, Patient Global Disease Status, Patient Global Therapeutic Benefit, the Multiple Ability Self-report Questionnaire (MASQ, cognitive function), the Multidimensional Health Assessment Questionnaire (MDHAQ), Multidimensional Fatigue Inventory (MFI), and diary assessments including current pain (morning, random daily, and evening reports); overall pain past week (weekly report), overall fatigue in the last week (weekly report), and the extent that pain kept the patient from caring for themselves (weekly report). The primary efficacy assessment of this study was a composite responder status defined by three domains of interest evaluated at visit Tx15. The domains measured were The primary efficacy parameter for an indication in the treatment of pain of fibromyalgia was the composite responder status based on the morning recall pain as recorded in the PED and patient global as recorded on the PGIC at Visit Tx15. The primary efficacy parameter for an indication in the treatment of FMS was the composite responder status based on two domains of pain and patient global as used above in the primary efficacy parameter for the treatment of the pain of fibromyalgia plus the additional domain of physical function as measured by the SF-36 PCS at Visit Tx15. […] A patient was classified as a responder for the treatment of FMS if he or she satisfied the responder criteria for the treatment of pain of fibromyalgia and the following additional criterion (at visit Tx15): • Improvement on the SF-36 PCS score from baseline by an amount at least equivalent to the minimal clinically important difference, as defined in the Statistical Analysis Plan. Table 1 summarizes 3-month results for the Baseline Observation Carried Forward (BOCF), Last Observation Carried Forward (LOCF) and study completer (OC) populations. LOCF is an analysis in which observations are carried forward to the last time point for patients who dropped out. The LOCF analysis treats the carried-forward data as observed data at the last time point. BOCF is an analysis that requires that the patient remain active in the trial to be evaluated for response. If a patient withdrew from the trial for any reason, they were classified as a non-responder irregardless of their pain and global scores at the time of withdrawal.

[2] = target: NMDA receptor; conditions: read-out: IC50, NMDA receptor antagonistic properties; cited from earlier work
[3] = tested on: patient experiencing fatigue and fibromyalgia; conditions: lofepramine 70 mg bd in combination with L-phenylalanine 500 mg bd; persisted for more than six months; cited from earlier work

SMILES: CCN(CC)C(=O)[C@]1(c2ccccc2)C[C@@H]1CN (racemic) [milnacipran, cis-(±)-2-(aminomethyl)-N,N-diethyl-1-phenyl-cyclopropanecarboxamide]
- Composite Pain responder rate, difference from placebo ([1]; BOCF, 100 mg/day (399)): 6.35%
- Composite Pain responders, number ([1]; BOCF, 100 mg/day (399)): 91
- Composite Pain responders, percent ([1]; BOCF, 100 mg/day (399)): (22.81%)
- Composite Syndrome responder rate, difference from placebo ([1]; BOCF, 100 mg/day (399)): 5.81%
- Composite Syndrome responders, number ([1]; BOCF, 100 mg/day (399)): 58
- Composite Syndrome responders, percent ([1]; BOCF, 100 mg/day (399)): (14.54%)
- PGIC Component responder rate, difference from placebo ([1]; BOCF, 100 mg/day (399)): 8.39%
- PGIC Component responders, number ([1]; BOCF, 100 mg/day (399)): 125
- PGIC Component responders, percent ([1]; BOCF, 100 mg/day (399)): (31.33%)
- Pain Component responder rate, difference from placebo ([1]; BOCF, 100 mg/day (399)): 5.89%
- Pain Component responders, number ([1]; BOCF, 100 mg/day (399)): 124
- Pain Component responders, percent ([1]; BOCF, 100 mg/day (399)): (31.08%)
- SF36 PCS Component responder rate, difference from placebo ([1]; BOCF, 100 mg/day (399)): 5.62%
- SF36 PCS Component responders, number ([1]; BOCF, 100 mg/day (399)): 108
- SF36 PCS Component responders, percent ([1]; BOCF, 100 mg/day (399)): (27.07%)
- Composite Pain responder rate, difference from placebo ([1]; BOCF, 200 mg/day (396)): 8.29%
- Composite Pain responders, number ([1]; BOCF, 200 mg/day (396)): 98
- Composite Pain responders, percent ([1]; BOCF, 200 mg/day (396)): (24.75%)
- Composite Syndrome responder rate, difference from placebo ([1]; BOCF, 200 mg/day (396)): 5.16%
- Composite Syndrome responders, number ([1]; BOCF, 200 mg/day (396)): 55
- Composite Syndrome responders, percent ([1]; BOCF, 200 mg/day (396)): (13.89%)
- PGIC Component responder rate, difference from placebo ([1]; BOCF, 200 mg/day (396)): 9.64%
- PGIC Component responders, number ([1]; BOCF, 200 mg/day (396)): 129
- PGIC Component responders, percent ([1]; BOCF, 200 mg/day (396)): (32.58%)
- Pain Component responder rate, difference from placebo ([1]; BOCF, 200 mg/day (396)): 4.86%
- Pain Component responders, number ([1]; BOCF, 200 mg/day (396)): 119
- Pain Component responders, percent ([1]; BOCF, 200 mg/day (396)): (30.05%)
- SF36 PCS Component responder rate, difference from placebo ([1]; BOCF, 200 mg/day (396)): 1.02%
- SF36 PCS Component responders, number ([1]; BOCF, 200 mg/day (396)): 89
- SF36 PCS Component responders, percent ([1]; BOCF, 200 mg/day (396)): (22.47%)
- Composite Pain responder rate, difference from placebo ([1]; LOCF, 100 mg/day (399)): 7.61%
- Composite Pain responders, number ([1]; LOCF, 100 mg/day (399)): 103
- Composite Pain responders, percent ([1]; LOCF, 100 mg/day (399)): (25.81%)
- Composite Syndrome responder rate, difference from placebo ([1]; LOCF, 100 mg/day (399)): 6.56%
- Composite Syndrome responders, number ([1]; LOCF, 100 mg/day (399)): 65
- Composite Syndrome responders, percent ([1]; LOCF, 100 mg/day (399)): (16.29%)
- PGIC Component responder rate, difference from placebo ([1]; LOCF, 100 mg/day (399)): 9.65%
- PGIC Component responders, number ([1]; LOCF, 100 mg/day (399)): 138
- PGIC Component responders, percent ([1]; LOCF, 100 mg/day (399)): (34.59%)
- Pain Component responder rate, difference from placebo ([1]; LOCF, 100 mg/day (399)): 8.66%
- Pain Component responders, number ([1]; LOCF, 100 mg/day (399)): 149
- Pain Component responders, percent ([1]; LOCF, 100 mg/day (399)): (37.34%)
- SF36 PCS Component responder rate, difference from placebo ([1]; LOCF, 100 mg/day (399)): 6.89%
- SF36 PCS Component responders, number ([1]; LOCF, 100 mg/day (399)): 129
- SF36 PCS Component responders, percent ([1]; LOCF, 100 mg/day (399)): (32.33%)
- Composite Pain responder rate, difference from placebo ([1]; LOCF, 200 mg/day (396)): 11.35%
- Composite Pain responders, number ([1]; LOCF, 200 mg/day (396)): 117
- Composite Pain responders, percent ([1]; LOCF, 200 mg/day (396)): (29.55%)
- Composite Syndrome responder rate, difference from placebo ([1]; LOCF, 200 mg/day (396)): 6.68%
- Composite Syndrome responders, number ([1]; LOCF, 200 mg/day (396)): 65
- Composite Syndrome responders, percent ([1]; LOCF, 200 mg/day (396)): (16.41%)
- PGIC Component responder rate, difference from placebo ([1]; LOCF, 200 mg/day (396)): 13.19%
- PGIC Component responders, number ([1]; LOCF, 200 mg/day (396)): 151
- PGIC Component responders, percent ([1]; LOCF, 200 mg/day (396)): (38.13%)
- Pain Component responder rate, difference from placebo ([1]; LOCF, 200 mg/day (396)): 11.22%
- Pain Component responders, number ([1]; LOCF, 200 mg/day (396)): 158
- Pain Component responders, percent ([1]; LOCF, 200 mg/day (396)): (39.90%)
- SF36 PCS Component responder rate, difference from placebo ([1]; LOCF, 200 mg/day (396)): 2.09%
- SF36 PCS Component responders, number ([1]; LOCF, 200 mg/day (396)): 109
- SF36 PCS Component responders, percent ([1]; LOCF, 200 mg/day (396)): (27.53%)
- Composite Pain responder rate, difference from placebo ([1]; OC, 100 mg/day): 13.37%
- Composite Pain responders, percent ([1]; OC, 100 mg/day): (38.56%)
- Composite Pain, m/n = # of responders/# of patients included ([1]; OC, 100 mg/day): 91/236
- Composite Syndrome responder rate, difference from placebo ([1]; OC, 100 mg/day): 11.22%
- Composite Syndrome responders, percent ([1]; OC, 100 mg/day): (24.58%)
- Composite Syndrome, m/n = # of responders/# of patients included ([1]; OC, 100 mg/day): 58/236
- PGIC Component responder rate, difference from placebo ([1]; OC, 100 mg/day): 15.70%
- PGIC Component responders, percent ([1]; OC, 100 mg/day): (47.53%)
- PGIC Component, m/n = # of responders/# of patients included ([1]; OC, 100 mg/day): 125/263
- Pain Component responder rate, difference from placebo ([1]; OC, 100 mg/day): 13.92%
- Pain Component responders, percent ([1]; OC, 100 mg/day): (52.32%)
- Pain Component, m/n = # of responders/# of patients included ([1]; OC, 100 mg/day): 124/237
- SF36 PCS Component responder rate, difference from placebo ([1]; OC, 100 mg/day): 11.40%
- SF36 PCS Component responders, percent ([1]; OC, 100 mg/day): (41.06%)
- SF36 PCS Component, m/n = # of responders/# of patients included ([1]; OC, 100 mg/day): 108/263
- Composite Pain responder rate, difference from placebo ([1]; OC, 200 mg/day): 20.39%
- Composite Pain responders, percent ([1]; OC, 200 mg/day): (45.58%)
- Composite Pain, m/n = # of responders/# of patients included ([1]; OC, 200 mg/day): 98/215
- Composite Syndrome responder rate, difference from placebo ([1]; OC, 200 mg/day): 12.22%
- Composite Syndrome responders, percent ([1]; OC, 200 mg/day): (25.58%)
- Composite Syndrome, m/n = # of responders/# of patients included ([1]; OC, 200 mg/day): 55/215
- PGIC Component responder rate, difference from placebo ([1]; OC, 200 mg/day): 18.76%
- PGIC Component responders, percent ([1]; OC, 200 mg/day): (50.59%)
- PGIC Component, m/n = # of responders/# of patients included ([1]; OC, 200 mg/day): 129/255
- Pain Component responder rate, difference from placebo ([1]; OC, 200 mg/day): 16.44%
- Pain Component responders, percent ([1]; OC, 200 mg/day): (54.84%)
- Pain Component, m/n = # of responders/# of patients included ([1]; OC, 200 mg/day): 119/217
- SF36 PCS Component responder rate, difference from placebo ([1]; OC, 200 mg/day): 5.24%
- SF36 PCS Component responders, percent ([1]; OC, 200 mg/day): (34.90%)
- SF36 PCS Component, m/n = # of responders/# of patients included ([1]; OC, 200 mg/day): 89/255
- IC50 [2]: ~6.3 µM

SMILES: CN(CCCN1c2ccccc2CCc2ccccc21)CC(=O)c1ccc(Cl)cc1 [lofepramine]
- effect on fatigue and fibromyalgia [3]: considerable improvement in fatigue and fibromyalgia
